Source: patent US8246943B2, “Prebiotic composition” (Conopco, Inc., priority 2009, dated 2012)
“And” between values parts separate entries of the source, which are not always exact repeats. Identical values can stand only once.

Assays:
[1] = system: Clostridia (C. histolyticum and C. perfringens); type: cell-based
[2] = system: Eubacterium rectale and Clostridium coccoides; experiment: 3 stage in vitro gut model, bacterial populations; type: cell-based
bifidobacteria [3] = settings: background statement; cited from earlier work
Bifidobacteria [4] = experiment: 3 stage in vitro gut model, bacterial populations; type: cell-based
Bacteroides = experiment: 3 stage in vitro gut model, bacterial populations; type: cell-based
[5] = prebiotic effect of black tea flavonoid components (test not described); settings: statement in the description, no test given
[6] = SS1 (steady state without test substrate), vessel 1
[7] = SS1 (steady state without test substrate), vessel 2
[8] = SS1 (steady state without test substrate), vessel 3
[9] = SS2 (steady state with substrate added daily), vessel 1
[10] = SS2 (steady state with substrate added daily), vessel 2
[11] = SS2 (steady state with substrate added daily), vessel 3

For Inulin, the “Clostridia (C. histolyticum and C. perfringens) population” value [1] was 5.67 Log 10 cells/ml of culture fluid and 5.84 Log 10 cells/ml of culture fluid and 5.49 Log 10 cells/ml of culture fluid and 5.89 Log 10 cells/ml of culture fluid and 5.59 Log 10 cells/ml of culture fluid, the “Eubacterium rectale and Clostridium coccoides population” value [2, 6] was 9.14 Log 10 cells/ml of culture fluid and the “Eubacterium rectale and Clostridium coccoides population” value [2, 7] was 9.19 Log 10 cells/ml of culture fluid. The “Eubacterium rectale and Clostridium coccoides population” value [2, 8] was 9.17 Log 10 cells/ml of culture fluid, the “Eubacterium rectale and Clostridium coccoides population” value [2, 9] was 9.37 Log 10 cells/ml of culture fluid and the “Eubacterium rectale and Clostridium coccoides population” value [2, 10] was 9.28 Log 10 cells/ml of culture fluid. The “Eubacterium rectale and Clostridium coccoides population” value [2, 11] was 9.20 Log 10 cells/ml of culture fluid, the bifidobacteria in humans (bifidobacteria [3]) was “significantly increase bifidobacteria” and the Bifidobacteria population (Bifidobacteria [4]; [6]) was 7.62 Log 10 cells/ml of culture fluid. For the same substance, the Bifidobacteria population (Bifidobacteria [4]; [7]) was 7.52 Log 10 cells/ml of culture fluid, the Bifidobacteria population (Bifidobacteria [4]; [8]) was 7.49 Log 10 cells/ml of culture fluid and the “prebiotic effect in gut model (in words)” value (Bifidobacteria [4]; SS1 vs SS2, 1.33 g digested black tea solids per day (2.40 g before digestion), 5 g/day inulin) was “achieved a similar effect”. The Bifidobacteria population (Bifidobacteria [4]; [9]) was 8.45 Log 10 cells/ml of culture fluid, the Bifidobacteria population (Bifidobacteria [4]; [10]) was 8.26 Log 10 cells/ml of culture fluid and the Bifidobacteria population (Bifidobacteria [4]; [11]) was 8.15 Log 10 cells/ml of culture fluid. For the same substance, the Bacteroides population (Bacteroides; [6]) was 7.23 Log 10 cells/ml of culture fluid, the Bacteroides population (Bacteroides; [7]) was 8.53 Log 10 cells/ml of culture fluid and the Bacteroides population (Bacteroides; [8]) was 8.35 Log 10 cells/ml of culture fluid. For the same substance, the Bacteroides population (Bacteroides; [9]) was 6.36 Log 10 cells/ml of culture fluid, the Bacteroides population (Bacteroides; [10]) was 8.81 Log 10 cells/ml of culture fluid and the Bacteroides population (Bacteroides; [11]) was 8.55 Log 10 cells/ml of culture fluid.
For catechins, the “prebiotic effect (in words)” value [5] was “appear to reduce the prebiotic effect of thearubigins”.
In the case of fructo-oligosaccharides, the bifidobacteria in humans (bifidobacteria [3]) is given as “significantly increase bifidobacteria”.
With theaflavins the “prebiotic effect (in words)” value [5] was “little or no prebiotic effect”.
